From US7282522B2, “Hydroxamic acid derivatives and the method for preparing thereof” (Amorepacific Corporation, priority 2003, dated 2007)
Where two headings read alike, the source gives them in different places.

Assays:
RARα = target: T1, RARα (Homo sapiens, UniProt P10276); experiment: RARE-luciferase reporter assay in transfected CV-1 cells (affinity to retinoic acid receptor), RARα; format: cell-based; conditions: treated 24 hours at final concentration 10^−4M, control group 1000
T1 construct: expressed in transfected cells; host or cells: CV-1 cells (ATCC)
T1 sequence (P10276 1-462): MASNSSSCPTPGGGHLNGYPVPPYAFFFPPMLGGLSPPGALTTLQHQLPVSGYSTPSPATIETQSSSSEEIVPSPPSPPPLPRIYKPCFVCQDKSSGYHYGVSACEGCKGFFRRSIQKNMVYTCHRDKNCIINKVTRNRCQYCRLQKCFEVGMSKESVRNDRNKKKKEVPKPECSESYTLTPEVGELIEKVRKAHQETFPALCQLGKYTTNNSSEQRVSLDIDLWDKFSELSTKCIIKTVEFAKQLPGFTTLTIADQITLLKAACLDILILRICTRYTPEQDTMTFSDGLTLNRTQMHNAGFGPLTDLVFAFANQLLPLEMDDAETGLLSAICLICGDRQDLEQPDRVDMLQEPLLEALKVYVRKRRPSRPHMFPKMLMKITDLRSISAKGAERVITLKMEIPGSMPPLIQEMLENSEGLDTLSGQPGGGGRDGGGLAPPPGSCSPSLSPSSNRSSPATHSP
Method in brief: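 CV-1 cells co-transfected with pECE-RARα or pECE-RARγ, RARE-tk-Luc reporter and β-galactosidase vector. Starting 24 h post-transfection, cells were treated for 24 h with compounds at a final 10^−4M; luciferase reporter read-out.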

elastase = experiment: Inhibition of elastase expression in human fibroblasts (ELISA kit); format: cell-based; conditions: 10^−4M, 24 hours, serum-free medium, relative to control group = 100
Method in brief: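 Elastase in fibroblast culture fluid quantified by sandwich ELISA: 3 h capture, then chromophore-conjugated secondary antibody, then colour development, stopped with 1M sulfuric acid. Absorbance read at 405 nm. Expression given as % of the untreated control absorbance, with control set to 100.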

collagenase = experiment: Inhibition of collagenase expression in human fibroblasts (ELISA kit); format: cell-based; conditions: 10^−4M, 24 hours, serum-free medium, relative to control group = 100
Method in brief: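 Serum-starved human fibroblasts were treated for 24 h with 10^−4M test material in serum-free DMEM. Collagenase in the culture fluid was measured by sandwich ELISA read at 405 nm. Values are expressed as % of the untreated control (=100).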

white guinea pigs = experiment: Phototoxicity test (UVA irradiation); conditions: for Evaluation (phototoxicity): 1%(w/v) solution, UVA 15 J/cm^2; for Phototoxic index: 50 μl of 1%(w/v) solution, UVA 320~380 nm 15 J/cm^2, observed 24, 48 and 72 hours
procollagen type I = experiment: Effect on collagen biosynthesis (procollagen type I ELISA) in human fibroblasts; format: cell-based; conditions: 10^−4M, 24 hours, serum-free medium, relative to control group = 100
Description: Human fibroblasts were seeded into 24-well plate at 1×10^5 cells per well and then cultured to 90% of growth.
For each supernatant, procollagen production was measured with procollagen type I ELISA kit.

RARγ = target: T2, RARγ (Homo sapiens, UniProt P13631); experiment: RARE-luciferase reporter assay in transfected CV-1 cells (affinity to retinoic acid receptor), RARγ; format: cell-based; conditions: treated 24 hours at final concentration 10^−4M, control group 5000
T2 construct: expressed in transfected cells; host or cells: CV-1 cells (ATCC)
T2 sequence (P13631 1-454): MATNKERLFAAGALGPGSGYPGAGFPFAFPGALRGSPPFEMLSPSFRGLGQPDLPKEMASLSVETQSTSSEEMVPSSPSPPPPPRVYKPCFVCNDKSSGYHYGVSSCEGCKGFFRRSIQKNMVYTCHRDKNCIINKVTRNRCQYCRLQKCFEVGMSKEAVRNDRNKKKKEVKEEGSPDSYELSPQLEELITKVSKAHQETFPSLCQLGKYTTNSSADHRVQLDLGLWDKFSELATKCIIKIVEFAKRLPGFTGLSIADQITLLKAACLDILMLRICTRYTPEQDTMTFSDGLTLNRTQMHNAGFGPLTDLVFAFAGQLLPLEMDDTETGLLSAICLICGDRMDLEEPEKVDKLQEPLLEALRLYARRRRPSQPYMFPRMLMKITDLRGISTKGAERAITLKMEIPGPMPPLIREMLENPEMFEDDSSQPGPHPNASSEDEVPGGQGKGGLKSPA
Method in brief: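 CV-1 cells in DMEM with 2.5% FBS, 5,000 per well, transfected 24 h after seeding with 10 ng pECE-RARα, pECE-RARγ, 100 ng RARE-tk-Luc reporter and 100 ng β-galactosidase vector. Read-out is RARE-driven luciferase.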

rabbits [1] = conditions: rabbit, in vivo
Description: (§1) Test was performed using fifty-six (56) of healthy male rabbits whose backs were depilated. […] 0.5ml of the test sample solution was applied to the right site of 2.5 cm×2.5 cm region on each of the depilated back. Left site with no sample treated was compared as a control. 24 hours or 72 hours later, skin abnormality such as erythema, crust and edema was observed.
(§2) Based on the score of skin response, skin irritation was evaluated according to Draize's P.I.I.(Primary Irritation Index) and compared with retinoic acid.

rabbits [2] = experiment: Primary skin irritation test on animals (Draize P.I.I.); conditions: depilated back; for P.I.I. (Primary Irritation Index): 0.5 ml of 1% solution in 1,3-butylene glycol:ethanol 7:3, observed 24 or 72 hours later; for Evaluation (skin irritation): 1% solution, according to Draize's P.I.I.
Description: as §1, §2

Compound	Luciferase activity RARα (RARα)	Elastase expression (%) (elastase)	Collagenase expression (%) (collagenase)	Evaluation (phototoxicity) (white guinea pigs)	Phototoxic index (white guinea pigs)	Collagen biosynthesis (%) (procollagen type I)	Luciferase activity RARγ (RARγ)	Evaluation (skin irritation) (rabbits [1])	P.I.I. (Primary Irritation Index) (rabbits [1])	P.I.I. (Primary Irritation Index) (rabbits [2])	Evaluation (skin irritation) (rabbits [2])
CN(C(=O)c1ccc(C(C)(C)C)cc1)c1ccc(C(=O)NO)cc1 [Example 19, N-[4-(N-hydroxycarbamoyl)phenyl]-N-methyl-[4-tert-butylphenyl]carboxyamide]	10020	80%	70%	No phototoxicity (lower value than 0.5, criterion value to be estimated as no phototoxicity)	0	120%	11200	No irritation	0.223		
O=C(Cc1ccc(NC(=O)c2ccccc2)cc1)NO [Example 23, N-[4-(N-hydroxycarbamoylmethyl)phenyl]benzamide]	13000	79%	77%	No phototoxicity (lower value than 0.5, criterion value to be estimated as no phototoxicity)	0	131%	13200	No irritation	0.321		
CCc1ccc(N(C)C(=O)c2ccc(C(=O)NO)cc2)cc1 [Example 48, [4-(N-hydroxycarbamoyl)phenyl]-N-methyl-N-[4-ethylphenyl]carboxyamide]	15500	87%	87%	No phototoxicity (lower value than 0.5, criterion value to be estimated as no phototoxicity)	0	107%	11200			0.468	No irritation
CCCc1ccc(N(C)C(=O)c2ccc(C(=O)NO)cc2)cc1 [Example 49, [4-(N-hydroxycarbamoyl)phenyl]-N-methyl-N-[4-propylphenyl]carboxyamide]	14500	87%	81%	No phototoxicity (lower value than 0.5, criterion value to be estimated as no phototoxicity)	0	109%	12100			0.342	No irritation
CC(C)c1ccc(N(C)C(=O)c2ccc(C(=O)NO)cc2)cc1 [Example 50, [4-(N-hydroxycarbamoyl)phenyl]-N-methyl-N-[4-isopropylphenyl]carboxyamide]	12300	78%	80%	No phototoxicity (lower value than 0.5, criterion value to be estimated as no phototoxicity)	0	110%	11212			0.234	No irritation
CCCCc1ccc(N(C)C(=O)c2ccc(C(=O)NO)cc2)cc1 [Example 51, [4-(N-hydroxycarbamoyl)phenyl]-N-methyl-N-[4-butylphenyl]carboxyamide]	13400	77%	76%	No phototoxicity (lower value than 0.5, criterion value to be estimated as no phototoxicity)	0	121%	12210			0.331	No irritation
CN(C(=O)c1ccc(C(=O)NO)cc1)c1ccc(C(C)(C)C)cc1 [Example 52, [4-(N-hydroxycarbamoyl)phenyl]-N-methyl-N-[4-tert-butylphenyl]carboxamide]	12400	87%	77%	No phototoxicity (lower value than 0.5, criterion value to be estimated as no phototoxicity)	0	127%	12130			0.412	No irritation
Cc1ccc(N(C)C(=O)c2ccc(C(=O)NO)cc2)cc1C [Example 53, [4-(N-hydroxycarbamoyl)phenyl]-N-methyl-N-[3,4-dimethylphenyl]carboxyamide]	14500	80%	75%	No phototoxicity (lower value than 0.5, criterion value to be estimated as no phototoxicity)	0	122%	12300			0.321	No irritation
CN(C(=O)c1ccc(C(=O)NO)cc1)C12CC3CC(CC(C3)C1)C2 [Example 54, [4-(N-hydroxycarbamoyl)phenyl]-N-adamantyl-N-methylcarboxyamide]	22500	67%	83%	No phototoxicity (lower value than 0.5, criterion value to be estimated as no phototoxicity)	0	121%	11000			0.567	No irritation
CN(O)C(=O)c1ccc(C(=O)N(C)C23CC4CC(CC(C4)C2)C3)cc1 [Example 55, N-adamantyl [4-(N-hydroxy-N-methylcarbamoyl)phenyl]-N-methyl carboxyamide]	13400	70%	85%	No phototoxicity (lower value than 0.5, criterion value to be estimated as no phototoxicity)	0	108%	11000			0.245	No irritation
N-[4-(N-hydroxycarbamoyl)phenyl]adamantyl carboxyamide [Example 10]	11000	77%	75%	No phototoxicity (lower value than 0.5, criterion value to be estimated as no phototoxicity)	0	106%	12000	No irritation	0.375		
